The values below come from PMC7281265, “Design, Synthesis, and Biological Evaluation of 1,2,3-Triazole-linked triazino[5,6-b]indole-benzene sulfonamide Conjugates as Potent Carbonic Anhydrase I, II, IX, and XIII Inhibitors” (Metabolites, 2020).

The target in one data set is hCA XIII (Homo sapiens, UniProt Q8N1Q1). In words: stopped-flow CO2 hydrase assay, hCA XIII.
The target in a further data set is hCA I (Homo sapiens, UniProt P00915). In words: stopped-flow CO2 hydrase assay, hCA I.
The target of another data set is hCA II (Homo sapiens, UniProt P00918). In words: stopped-flow CO2 hydrase assay, hCA II.
Another data set concerns the target hCA IX (Homo sapiens, UniProt Q16790). Description: stopped-flow CO2 hydrase assay, hCA IX.

Chain of hCA I (P00915 whole entry): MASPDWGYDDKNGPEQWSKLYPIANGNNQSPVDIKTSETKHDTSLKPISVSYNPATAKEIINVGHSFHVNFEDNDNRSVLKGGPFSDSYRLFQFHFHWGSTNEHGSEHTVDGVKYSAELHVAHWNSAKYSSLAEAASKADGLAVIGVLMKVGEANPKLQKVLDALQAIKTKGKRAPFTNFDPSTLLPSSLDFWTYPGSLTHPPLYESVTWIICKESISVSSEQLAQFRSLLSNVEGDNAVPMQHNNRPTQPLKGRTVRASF
Chain of hCA XIII (Q8N1Q1 whole entry): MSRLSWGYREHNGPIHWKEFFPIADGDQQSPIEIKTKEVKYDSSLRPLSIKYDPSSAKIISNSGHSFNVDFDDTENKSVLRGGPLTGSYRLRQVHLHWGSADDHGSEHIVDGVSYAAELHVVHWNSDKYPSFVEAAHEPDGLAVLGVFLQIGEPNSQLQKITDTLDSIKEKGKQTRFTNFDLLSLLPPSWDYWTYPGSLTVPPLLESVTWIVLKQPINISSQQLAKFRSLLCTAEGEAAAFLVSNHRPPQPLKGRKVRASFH
Description for hCA II: (§1) The newly synthesized 1,2,3-triazole linked triazino[5,6-b]indole-benzene sulfonamide hybrids (6a–6o) were evaluated for their carbonic anhydrase inhibitory activity against a panel of carbonic anhydrases, i.e., hCA I, hCA II, hCA IX, and hCA XIII, by the stopped-flow CO2 hydrase assay method. Highly purified CA isoforms were employed, for which the kinetic parameters for the physiologic reaction (CO2 hydration) were measured (see the Experimental section for details), monitoring the color change produced by the formation of H^+ ions (and bicarbonate). […] All the newly synthesized analogs were evaluated in vitro for their inhibitory activity against a panel of recombinant CA isoforms, i.e., hCA I, hCA II, hCA IX, and hCA XIII, obtained inhouse, using the stopped-flow CO2 hydrase assay.
(§2) An SX.18 V-R Applied Photophysics (Oxford, UK) stopped-flow instrument was used to assay the catalytic inhibition of various CA enzymes [32]. […] IC50-s values were calculated from the enzyme activity (as kcat, see Table 2) with respect to the inhibitor concentration.
Description for hCA IX: as §1, §2
Description for hCA XIII: as §1, §2

In general, Ki refers to a dissociation constant, usually derived from enzyme kinetics or from competition with a known ligand. For orientation: melting point means the temperature of the solid-liquid transition. Take `Cn1c2ccccc2c2nnc(SCc3cn(-c4ccc(S(N)(=O)=O)cc4)nn3)nc21` [Compound 6a]: the melting point lay within 235 to 240 °C. This molecule also had a Ki at hCA XIII of 77.8 nM. The molecule also showed a Ki on hCA I of 910 nM. Moreover, on hCA II, the inhibition constant Ki came out at 65.5 nM. Further, the Ki at hCA IX came out at 286 nM.
Molecule `CCn1c2ccccc2c2nnc(SCc3cn(-c4ccc(S(N)(=O)=O)cc4)nn3)nc21` [Compound 6b] displayed a melting point of 202 to 204 °C. On hCA XIII, this molecule gave an inhibition constant Ki of 69.8 nM. For the same molecule, the affinity on hCA I, expressed as Ki, was 642 nM. The Ki on hCA II was 72 nM. This molecule also registered a Ki at hCA IX of 172 nM.
The matching figures for `CCCn1c2ccccc2c2nnc(SCc3cn(-c4ccc(S(N)(=O)=O)cc4)nn3)nc21` [Compound 6c]: 261 to 263 °C, 365 nM, 3960 nM, 88.7 nM and 219 nM.
Regarding `CC(C)n1c2ccccc2c2nnc(SCc3cn(-c4ccc(S(N)(=O)=O)cc4)nn3)nc21` [Compound 6d], the melting point was in the range of 213 to 215 °C. The molecule also showed a Ki at hCA XIII of 65.8 nM. For the same molecule, the Ki on hCA I turned out to be 315 nM. At hCA II, the Ki stood at 20.9 nM. The affinity at hCA IX corresponds to a Ki of 37.8 nM.
`C=CCn1c2ccccc2c2nnc(SCc3cn(-c4ccc(S(N)(=O)=O)cc4)nn3)nc21` [Compound 6e] registered a melting point of 230 to 232 °C. The molecule further yielded a Ki on hCA XIII of 627 nM. On hCA I, the Ki was 536 nM. The same molecule displayed an inhibition constant (Ki) on hCA II of 41.7 nM. The molecule also returned a Ki on hCA IX of 41.1 nM.
The matching figures for `Cn1c2ccc(F)cc2c2nnc(SCc3cn(-c4ccc(S(N)(=O)=O)cc4)nn3)nc21` [Compound 6f]: 244 to 246 °C, 835 nM, 766 nM, 59.6 nM and 41.3 nM.
The matching figures for `CCn1c2ccc(F)cc2c2nnc(SCc3cn(-c4ccc(S(N)(=O)=O)cc4)nn3)nc21` [Compound 6g]: 246 to 248 °C, 675 nM, 699 nM, 63.9 nM and 193 nM.
`CCCn1c2ccc(F)cc2c2nnc(SCc3cn(-c4ccc(S(N)(=O)=O)cc4)nn3)nc21` [Compound 6h] yielded a melting point of 240 to 242 °C. The molecule also showed a Ki on hCA XIII of 1810 nM. Besides, the Ki on hCA I is 764 nM. On hCA II, this molecule registered a Ki of 683 nM. Further, affinity at hCA IX was put at a Ki of 119 nM.
With `CC(C)n1c2ccc(F)cc2c2nnc(SCc3cn(-c4ccc(S(N)(=O)=O)cc4)nn3)nc21` [Compound 6i], the melting point was 235 to 237 °C. This molecule also had an inhibitory constant (Ki) on hCA XIII of 736 nM. For the same molecule, the Ki on hCA I turned out to be 379 nM. This molecule also showed a Ki at hCA II of 7.7 nM. In addition, the Ki on hCA IX is 34.9 nM.
The molecule `C=CCn1c2ccc(F)cc2c2nnc(SCc3cn(-c4ccc(S(N)(=O)=O)cc4)nn3)nc21` [Compound 6j] registered a melting point of 245 to 247 °C. Further, the Ki on hCA XIII stood at 794 nM. Besides, at hCA I, the Ki is 4590 nM. The molecule also had a Ki on hCA II of 73.7 nM. Besides, the Ki on hCA IX was found to be 402 nM.
In turn, `Cn1c2ccc(Cl)cc2c2nnc(SCc3cn(-c4ccc(S(N)(=O)=O)cc4)nn3)nc21` [Compound 6k] displayed a melting point of 243 to 248 °C. Affinity at hCA XIII was put at a Ki of 867 nM. This molecule also registered a Ki at hCA I of 5140 nM. In addition, the affinity at hCA II corresponds to a Ki of 253 nM. Also, on hCA IX, the Ki stood at 331 nM.
For the molecule `CCn1c2ccc(Cl)cc2c2nnc(SCc3cn(-c4ccc(S(N)(=O)=O)cc4)nn3)nc21` [Compound 6l], the melting point lay in the range of 252 to 256 °C. The molecule further showed a Ki at hCA XIII of 3980 nM. Besides, the affinity at hCA I corresponds to a Ki of 2840 nM. Besides, at hCA II, the affinity corresponds to a Ki of 185 nM. The same molecule registered a Ki at hCA IX of 150 nM.
`CCCn1c2ccc(Cl)cc2c2nnc(SCc3cn(-c4ccc(S(N)(=O)=O)cc4)nn3)nc21` [Compound 6m]: the melting point fell in the range of 257 to 262 °C. The molecule further came in with a Ki at hCA XIII of 824 nM. The affinity on hCA I, expressed as Ki, was 6510 nM. On hCA II, this molecule gave a Ki of 61.7 nM. This molecule also gave a Ki at hCA IX of 204 nM.
Take `CC(C)n1c2ccc(Cl)cc2c2nnc(SCc3cn(-c4ccc(S(N)(=O)=O)cc4)nn3)nc21` [Compound 6n]: the melting point is 263 to 265 °C. In addition, the affinity on hCA XIII, expressed as Ki, was 91.3 nM. The molecule also returned a Ki on hCA I of 572 nM. The molecule further showed a Ki at hCA II of 179 nM. In addition, the Ki at hCA IX stood at 321 nM.
The matching figures for `C=CCn1c2ccc(Cl)cc2c2nnc(SCc3cn(-c4ccc(S(N)(=O)=O)cc4)nn3)nc21` [Compound 6o]: 261 to 264 °C, 2300 nM, 694 nM, 97.1 nM and 325 nM.
